Experimental data reported in the NIST ThermoML archive (doi:10.1021/je100851w).

Assay: xn = mol fraction of the nth substance listed
Settings: Vibrating tube method

S [hydrogen sulfide] + CCC
Settings	mass density [kg/m3]
333.22 K, 2048 kPa, Gas, x1 = 0.2227	40
333.22 K, 2176 kPa, Gas, x1 = 0.2227	43.6
333.22 K, 2300 kPa, Gas, x1 = 0.2227	47.2
333.22 K, 2398 kPa, Gas, x1 = 0.2227	50.2
333.22 K, 2551 kPa, Gas, x1 = 0.2227	55.6
333.22 K, 2630 kPa, Gas, x1 = 0.2227	59.1
333.22 K, 2722 kPa, Gas, x1 = 0.2227	62.4
333.22 K, 2778 kPa, Gas, x1 = 0.2227	65.4
333.22 K, 3571 kPa, Liquid, x1 = 0.2227	438.6
333.22 K, 3861 kPa, Liquid, x1 = 0.2227	441.9
333.22 K, 4197 kPa, Liquid, x1 = 0.2227	445.2
333.22 K, 4915 kPa, Liquid, x1 = 0.2227	450.2
333.22 K, 5323 kPa, Liquid, x1 = 0.2227	453.4
333.22 K, 5731 kPa, Liquid, x1 = 0.2227	456.4
333.22 K, 6177 kPa, Liquid, x1 = 0.2227	459.5
333.22 K, 6686 kPa, Liquid, x1 = 0.2227	462.8
333.22 K, 7239 kPa, Liquid, x1 = 0.2227	466.1
333.22 K, 7781 kPa, Liquid, x1 = 0.2227	469.2
333.22 K, 8351 kPa, Liquid, x1 = 0.2227	472.3
333.22 K, 8992 kPa, Liquid, x1 = 0.2227	475.5
333.22 K, 9907 kPa, Liquid, x1 = 0.2227	479.8
333.22 K, 10643 kPa, Liquid, x1 = 0.2227	482.8
333.22 K, 11360 kPa, Liquid, x1 = 0.2227	485.8
333.22 K, 12135 kPa, Liquid, x1 = 0.2227	488.8
333.22 K, 12959 kPa, Liquid, x1 = 0.2227	491.9
333.22 K, 13811 kPa, Liquid, x1 = 0.2227	495
333.22 K, 14817 kPa, Liquid, x1 = 0.2227	498.4
333.22 K, 15868 kPa, Liquid, x1 = 0.2227	501.8
333.22 K, 16856 kPa, Liquid, x1 = 0.2227	504.8
333.22 K, 17893 kPa, Liquid, x1 = 0.2227	507.8
333.22 K, 18975 kPa, Liquid, x1 = 0.2227	510.8
333.22 K, 20100 kPa, Liquid, x1 = 0.2227	513.8
333.22 K, 21435 kPa, Liquid, x1 = 0.2227	517.2
333.22 K, 22830 kPa, Liquid, x1 = 0.2227	520.5
333.22 K, 24120 kPa, Liquid, x1 = 0.2227	523.5
333.22 K, 25466 kPa, Liquid, x1 = 0.2227	526.5
333.22 K, 26959 kPa, Liquid, x1 = 0.2227	529.7
333.22 K, 28465 kPa, Liquid, x1 = 0.2227	532.7
333.22 K, 30160 kPa, Liquid, x1 = 0.2227	536
333.22 K, 31961 kPa, Liquid, x1 = 0.2227	539.4
333.22 K, 33791 kPa, Liquid, x1 = 0.2227	542.6
333.22 K, 35752 kPa, Liquid, x1 = 0.2227	546
333.22 K, 37781 kPa, Liquid, x1 = 0.2227	549.3
333.22 K, 39778 kPa, Liquid, x1 = 0.2227	552.5
363.24 K, 9 kPa, Fluid (supercritical or subcritical phases), x1 = 0.2691	0.1
363.24 K, 313 kPa, Fluid (supercritical or subcritical phases), x1 = 0.2691	4.4
363.24 K, 596 kPa, Fluid (supercritical or subcritical phases), x1 = 0.2691	8.6
363.24 K, 842 kPa, Fluid (supercritical or subcritical phases), x1 = 0.2691	12.3
363.24 K, 1110 kPa, Fluid (supercritical or subcritical phases), x1 = 0.2691	16.6
363.24 K, 1358 kPa, Fluid (supercritical or subcritical phases), x1 = 0.2691	20.8
363.24 K, 1602 kPa, Fluid (supercritical or subcritical phases), x1 = 0.2691	25
363.24 K, 1810 kPa, Fluid (supercritical or subcritical phases), x1 = 0.2691	28.7
363.24 K, 2014 kPa, Fluid (supercritical or subcritical phases), x1 = 0.2691	32.7
363.24 K, 2204 kPa, Fluid (supercritical or subcritical phases), x1 = 0.2691	36.6
363.24 K, 2401 kPa, Fluid (supercritical or subcritical phases), x1 = 0.2691	40.6
363.24 K, 2576 kPa, Fluid (supercritical or subcritical phases), x1 = 0.2691	44.4
363.24 K, 2742 kPa, Fluid (supercritical or subcritical phases), x1 = 0.2691	48.3
363.24 K, 2905 kPa, Fluid (supercritical or subcritical phases), x1 = 0.2691	52.3
363.24 K, 3058 kPa, Fluid (supercritical or subcritical phases), x1 = 0.2691	56.2
363.24 K, 3211 kPa, Fluid (supercritical or subcritical phases), x1 = 0.2691	60.3
363.24 K, 3358 kPa, Fluid (supercritical or subcritical phases), x1 = 0.2691	64.4
363.24 K, 3493 kPa, Fluid (supercritical or subcritical phases), x1 = 0.2691	68.4
363.24 K, 3613 kPa, Fluid (supercritical or subcritical phases), x1 = 0.2691	72.3
363.24 K, 3752 kPa, Fluid (supercritical or subcritical phases), x1 = 0.2691	76.3
363.24 K, 3878 kPa, Fluid (supercritical or subcritical phases), x1 = 0.2691	80.7
363.24 K, 3964 kPa, Fluid (supercritical or subcritical phases), x1 = 0.2691	84.5
363.24 K, 4056 kPa, Fluid (supercritical or subcritical phases), x1 = 0.2691	88.4
363.24 K, 4156 kPa, Fluid (supercritical or subcritical phases), x1 = 0.2691	92.4
363.24 K, 4237 kPa, Fluid (supercritical or subcritical phases), x1 = 0.2691	96.3
363.24 K, 4354 kPa, Fluid (supercritical or subcritical phases), x1 = 0.2691	102.5
363.24 K, 4468 kPa, Fluid (supercritical or subcritical phases), x1 = 0.2691	108.5
363.24 K, 4619 kPa, Fluid (supercritical or subcritical phases), x1 = 0.2691	120.8
363.24 K, 4747 kPa, Fluid (supercritical or subcritical phases), x1 = 0.2691	132.2
363.24 K, 4838 kPa, Fluid (supercritical or subcritical phases), x1 = 0.2691	142.5
363.24 K, 4877 kPa, Fluid (supercritical or subcritical phases), x1 = 0.2691	152.9
363.24 K, 4905 kPa, Fluid (supercritical or subcritical phases), x1 = 0.2691	166.8
363.24 K, 4932 kPa, Fluid (supercritical or subcritical phases), x1 = 0.2691	180.1
363.24 K, 4954 kPa, Fluid (supercritical or subcritical phases), x1 = 0.2691	190.9
363.24 K, 4982 kPa, Fluid (supercritical or subcritical phases), x1 = 0.2691	203.7
363.24 K, 5002 kPa, Fluid (supercritical or subcritical phases), x1 = 0.2691	216
363.24 K, 5021 kPa, Fluid (supercritical or subcritical phases), x1 = 0.2691	229.7
363.24 K, 5043 kPa, Fluid (supercritical or subcritical phases), x1 = 0.2691	241.1
363.24 K, 5101 kPa, Fluid (supercritical or subcritical phases), x1 = 0.2691	254
363.24 K, 5146 kPa, Fluid (supercritical or subcritical phases), x1 = 0.2691	266.2
363.24 K, 5182 kPa, Fluid (supercritical or subcritical phases), x1 = 0.2691	277.5
363.24 K, 5220 kPa, Fluid (supercritical or subcritical phases), x1 = 0.2691	288.7
363.24 K, 5267 kPa, Fluid (supercritical or subcritical phases), x1 = 0.2691	299.6
363.24 K, 5324 kPa, Fluid (supercritical or subcritical phases), x1 = 0.2691	307.2
363.24 K, 5360 kPa, Fluid (supercritical or subcritical phases), x1 = 0.2691	313.4
363.24 K, 5410 kPa, Fluid (supercritical or subcritical phases), x1 = 0.2691	319.7
363.24 K, 5474 kPa, Fluid (supercritical or subcritical phases), x1 = 0.2691	326
363.24 K, 5549 kPa, Fluid (supercritical or subcritical phases), x1 = 0.2691	332.3
363.24 K, 5632 kPa, Fluid (supercritical or subcritical phases), x1 = 0.2691	339.4
363.24 K, 5762 kPa, Fluid (supercritical or subcritical phases), x1 = 0.2691	346.5
363.24 K, 5914 kPa, Fluid (supercritical or subcritical phases), x1 = 0.2691	353.3
363.24 K, 6056 kPa, Fluid (supercritical or subcritical phases), x1 = 0.2691	359.2
363.24 K, 6228 kPa, Fluid (supercritical or subcritical phases), x1 = 0.2691	365.4
363.24 K, 6441 kPa, Fluid (supercritical or subcritical phases), x1 = 0.2691	371.6
363.24 K, 6679 kPa, Fluid (supercritical or subcritical phases), x1 = 0.2691	377.7
363.24 K, 6961 kPa, Fluid (supercritical or subcritical phases), x1 = 0.2691	383.9
363.24 K, 7276 kPa, Fluid (supercritical or subcritical phases), x1 = 0.2691	390
363.24 K, 7639 kPa, Fluid (supercritical or subcritical phases), x1 = 0.2691	396.1
363.24 K, 8055 kPa, Fluid (supercritical or subcritical phases), x1 = 0.2691	402.1
363.24 K, 8511 kPa, Fluid (supercritical or subcritical phases), x1 = 0.2691	408
363.24 K, 9002 kPa, Fluid (supercritical or subcritical phases), x1 = 0.2691	413.7
363.24 K, 9557 kPa, Fluid (supercritical or subcritical phases), x1 = 0.2691	419.4
363.24 K, 10183 kPa, Fluid (supercritical or subcritical phases), x1 = 0.2691	425.2
363.24 K, 10878 kPa, Fluid (supercritical or subcritical phases), x1 = 0.2691	431.1
363.24 K, 11648 kPa, Fluid (supercritical or subcritical phases), x1 = 0.2691	436.9
363.24 K, 12515 kPa, Fluid (supercritical or subcritical phases), x1 = 0.2691	442.7
363.24 K, 13444 kPa, Fluid (supercritical or subcritical phases), x1 = 0.2691	448.5
363.24 K, 14452 kPa, Fluid (supercritical or subcritical phases), x1 = 0.2691	454.1
363.24 K, 15616 kPa, Fluid (supercritical or subcritical phases), x1 = 0.2691	460.1
363.24 K, 16807 kPa, Fluid (supercritical or subcritical phases), x1 = 0.2691	465.7
363.24 K, 18163 kPa, Fluid (supercritical or subcritical phases), x1 = 0.2691	471.5
363.24 K, 19596 kPa, Fluid (supercritical or subcritical phases), x1 = 0.2691	477.1
363.24 K, 20717 kPa, Fluid (supercritical or subcritical phases), x1 = 0.2691	481.2
363.24 K, 21739 kPa, Fluid (supercritical or subcritical phases), x1 = 0.2691	484.7
363.24 K, 22936 kPa, Fluid (supercritical or subcritical phases), x1 = 0.2691	488.7
363.24 K, 24149 kPa, Fluid (supercritical or subcritical phases), x1 = 0.2691	492.4
363.24 K, 25434 kPa, Fluid (supercritical or subcritical phases), x1 = 0.2691	496.2
363.24 K, 26773 kPa, Fluid (supercritical or subcritical phases), x1 = 0.2691	500
363.24 K, 28220 kPa, Fluid (supercritical or subcritical phases), x1 = 0.2691	503.8
363.24 K, 29831 kPa, Fluid (supercritical or subcritical phases), x1 = 0.2691	507.9
363.24 K, 31352 kPa, Fluid (supercritical or subcritical phases), x1 = 0.2691	511.5
363.24 K, 32889 kPa, Fluid (supercritical or subcritical phases), x1 = 0.2691	515
363.24 K, 34710 kPa, Fluid (supercritical or subcritical phases), x1 = 0.2691	519
